Consider one molecule from publication PMC3188543, “The Anti-interferon Activity of Conserved Viral dUTPase ORF54 is Essential for an Effective MHV-68 Infection” (PLoS Pathogens, 2011).

For this test, the target named is T1, murine cellular dUTPase (Mus musculus, UniProt Q9CQ43).
T1 construct: gene Dut; FLAG-tagged, expressed in 293T, anti-FLAG immunopurified, 3xFLAG peptide eluted; tag kept; homotrimer
T1 sequence (Q9CQ43 1-162): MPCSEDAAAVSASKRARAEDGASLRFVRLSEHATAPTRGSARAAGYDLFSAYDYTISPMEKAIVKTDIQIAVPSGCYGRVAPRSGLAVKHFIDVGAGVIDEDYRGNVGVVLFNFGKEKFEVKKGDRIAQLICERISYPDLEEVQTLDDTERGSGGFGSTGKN
As to the kind of experiment: dUTP hydrolysis, read out by PCR with remaining dUTP in place of dTTP (gel). It counts as biochemical. The conditions noted are these: pH 7.5, 37 C, MgCl2, DTT, BSA; 5 mM dUTP stock; 0-25 h.

`O=c1ccn([C@H]2C[C@H](O)[C@@H](COP(=O)(O)OP(=O)(O)OP(=O)(O)O)O2)c(=O)[nH]1` [dUTP]: the “dUTP hydrolysis, read out by PCR with remaining dUTP in place of dTTP (gel)” value is “used to determine the presence of functional dUTP after incubation”.
